How the values were obtained:
[1] = system: E. coli PQ37; format: cell-based; conditions: iridoid at 250 ug plus 1.25 ug mL^−1 4NQO; blank = 1
Experimental: The SOS-chromotest in E. coli PQ37 was used to determine the potential for iridoids in noni fruit from French Polynesia to prevent primary DNA damage. E coli PQ37 was incubated at 37° C. in the presence of deacetylasperulosidic acid and asperulosidic acid at a concentration of 250 ug in a 96-well plate. Replicate samples were evaluated. […] Following incubation with the samples, 5-bromo-4-chloro-3-indolyl-β-D-galactopyranoside was added to the wells to detect β-galactosidase enzyme activity, which is induced during SOS repair of damaged DNA. The samples were again incubated for 90 minutes and the absorbances of the samples, blank and positive control were measured at 620 nm with a microplate reader. The β-galactosidase enzyme activity induction factor of each material was calculated by dividing the absorbance of the sample at 620 nm by that of the blank, while also correcting for cell viability.

[2] = system: E. coli PQ37; experiment: Anti-genotoxicity test (SOS-chromotest with 4NQO); format: cell-based; conditions: 250 μg mL^−1 iridoid plus 1.25 μg 4NQO, compared with vehicle blank
Experimental: The primary DNA damage test was performed again, similar to the method described above. […] Induction factors were calculated in the same manner as described above.

[3] = Thermal stability of DAA under pasteurization conditions (HPLC); format: physicochemical; conditions: 90° C. at pH 3.3 for one minute
Experimental: Tahitian noni fruit puree as used in this example is the mashed whole fruit, excluding seeds and pericarp. The fruits were originally collected from the Tahitian Islands. One gram of the puree was diluted with 5 mL of H2O-MeOH (1:1) and mixed thoroughly. The solution was then filtered through a nylon microfilter (0.45-μm pore size); the solution was collected into a 5 mL volumetric flask for HPLC analysis. Four batches of noni puree were analyzed in the experiments. Voucher specimens of the noni fruit puree are deposited in our lab. To test iridoid stability, a DAA solution of 0.5 mg/mL was prepared with MeOH. This solution was heated in a water-bath at 90° C. for 1 min, cooled to room temperature, and analyzed by HPLC.
Noni fruit juice is usually subjected to heat pasteurization during commercial processing. Pasteurization is usually employed in noni industry, i.e., heating up to 87.7° C. for several seconds. In this study, the stability of DAA was conducted. DAA was exposed to 90° C. at pH 3.3 for one minute to determine its thermal stability at acidic conditions.

SMILES | β-galactosidase enzyme activity induction factor (mean±standard deviation) [1] | induction factors of 4NQO plus DAA or AA [2] | thermal stability (DAA contents before and after heating) [3]
CC(=O)OCC1=C[C@H](O)[C@@H]2C(C(=O)O)=CO[C@@H](O[C@@H]3O[C@H](CO)[C@@H](O)[C@H](O)[C@H]3O)[C@H]12 [AA, asperulosidic acid] | 1.04±0.01 | no statistical difference from that of the vehicle blank | 
O=C(O)C1=CO[C@@H](O[C@@H]2O[C@H](CO)[C@@H](O)[C@H](O)[C@H]2O)[C@@H]2C(CO)=C[C@H](O)[C@H]12 [DAA, deacetylasperulosidic acid] | 0.98±0.02 | no statistical difference from that of the vehicle blank | no difference in the DAA contents before and after heating

Reference: patent US20110206786A1, “Acai and Iridoid Based Formulations” (priority 2010, published 2011)
